Data taken from US20100190755A1, “TETRACYCLINE COMPOUNDS FOR THE TREATMENT OF RHEUMATOID ARTHRITIS AND RELATED METHODS OF TREATMENT” (priority 2008, published 2010).
≈ marks a conversion by molar mass, not a printed value.

Legend:
[1] = tested on: E. coli ATCC25922 (tetracycline sensitive); test: E. coli MIC, broth micro-dilution per CLSI guidelines (Table 3); type: cell-based; details: for MIC: Escherichia coli, E. coli ATCC25922, cation-adjusted Mueller Hinton broth
[2] = tested on: Protein synthesis (E. coli S30 Extract System); test: Protein synthesis inhibition, in vitro transcription/translation assay (E. coli S30 Extract System for Circular DNA); type: biochemical
[3] = Pharmacokinetics in rats after i.v. and oral dosing; type: in vivo; details: rat; for bioavailability: male, CD/IGS, after oral dosing of 5 mg/kg, read-out: PK Parameters (Rat) % F, fraction of absorption; for bioavailability / half-life: plasma; for half-life: male CD/IGS rats, 1 mg/kg i.v. or 5 mg/kg oral, read-out: PK Parameters (Rat) T1/2 (converted)
Experimental: Pre-cannulated (jugular vein and carotid artery for i.v. group and carotid artery for oral group) male CD/IGS rats (approximately 250 g) were used. Rats were fasted overnight prior to dosing with access to food restored 2 hours after dosing. Rats were administered with approximately 0.25 mL compound (1 mg/kg dose) for i.v. route (via jugular vein over 20 seconds) or 0.5 mL solution (5 mg/kg dose) orally. Blood (300 μL) was collected in tubes with EDTA anticoagulant at various time points, centrifuged and plasma collected and stored frozen at −20° C. Animals were euthanized by CO2 following the final blood collection. Plasma was extracted (0.1% trifluoroacetic acid in 67% acetonitrile/33% water) and levels of compound quantified by HPLC/MS against a standard curve.

[4] = tested on: collagen-induced arthritis (CIA) in male DBA/1 mice; test: Murine collagen-induced arthritis (CIA) model, Example 2; type: in vivo, mouse; details: for EC50 in inflammation suppression in CIA mice: i.p. daily
Experimental: Four non-antibacterial analogues of minocycline (J, W, AF and AT) were synthesized and tested in the murine model of the disease, collagen-induced arthritis (CIA) (See supra). Male DBA/1 mice were immunized intradermally with 200 μg of bovine type II collagen and boosted with collagen three weeks later. Minocycline and four non-antibacterial minocycline derivatives were administered i.p. beginning after disease onset. Paw thickness was measured and animals were scored daily.
(§1) • 1. Male DBA/1 mice were immunized i.d. with an emulsion of 200 μg bovine type II collagen in Complete Freund's Adjuvant. • 2. On day 21, mice received i.d. boost of 100 μg collagen in Incomplete Freund's Adjuvant • 3. Compounds were administered i.p. daily for 7 days starting from disease onset (day 3-4 after boost). • 4. Foot swelling was measured by an engineering micrometer and disease severity was scored accordingly (1, erythema and mild swelling confined to the tarsal or ankle joint; 2, erythema and mild swelling extending from the ankle to the mid-foot; 3, erythema and moderate swelling extending from the ankle to the metatarsal joints; 4, erythema and severe swelling encompassing the ankle, foot, and digits). • 5. Change (Δ) of paw thickness=sum of paw thickness from 4 paws of a mouse (experimental)−sum of baseline paw thickness from 4 paws of the same mouse. • 6. % inhibition=cumulative A paw thickness (disease group−compound-treated group)/cumulative A paw thickness (disease group)

[5] = tested on: cytokines (IL-1, IL-6, RANKL and MCP-1) and a matrix metalloproteinase (MMP-9); test: Paw extract biomarker ELISA, CIA mice: whole panel (statements in words); type: in vivo, mouse
Experimental: as §1
(§2) • 1. Paws were collected from mice after 5-7 days of dosing and dissected free of skin. • 2. The paws were then homogenized in ice-cold PBS (2 ml/4 paws/mouse) containing 1× protease inhibitor using a Polytron homogenizer. • 3. Debris and particles were removed from the homogenized samples by centrifugation. • 4. Liquid layers were collected for MMP-9, IL-1, IL-6, RANKL, MCP-1, and TNFα analysis using ELISA kits from R & D System.

[6] = tested on: S. aureus RN450; test: Antibacterial activity MIC, Gram+ (Table 9); type: cell-based; details: Staphylococcus aureus, CAMHB, 35° C., approximately 18 hr
Experimental: (§3) 2 mg of each compound is dissolved in 100 μl of DMSO. The solution is then added to cation-adjusted Mueller Hinton broth (CAMHB), which results in a final compound concentration of 200 μg per ml. The tetracycline compound solutions are diluted to 50 μL volumes, with a test compound concentration of 0.098 μg/ml. Optical density (OD) determinations are made from fresh log-phase broth cultures of the test strains. Dilutions are made to achieve a final cell density of 1×10^6 CFU/ml. At OD=1, cell densities for different genera should be approximately:
(§4) 50 μl of the cell suspensions are added to each well of microtiter plates. The final cell density should be approximately 5×10^5 CFU/ml. These plates are incubated at 35° C. in an ambient air incubator for approximately 18 hr. The plates are read with a microplate reader and are visually inspected when necessary. The MIC is defined as the lowest concentration of the tetracycline compound that inhibits growth.

[7] = tested on: E. coli 25922; test: Antibacterial activity MIC, Gram- (Table 9); type: cell-based; details: Escherichia coli, CAMHB, 35° C., approximately 18 hr
Experimental: as §3, §4

[8] = tested on: collagen-induced arthritis (CIA) in male DBA/1 mice; test: CIA model, Example 3 (cumulative scores vs untreated controls); type: in vivo; details: Mus musculus
Experimental: The CIA model data were acquired according to the following protocol: • 1. Male DBA/1 mice were anaesthetized by i.p. injection of ketamine/xylazine (1.25 mg/ml:0.25 mg/ml, 100 μl/mouse). • 2. Anaesthetized mice were immunized intradermally at the base of the tail with 0.1 or 0.2 ml of an emulsion composed of 100 or 200 μg bovine type II collagen in Complete Freund's Adjuvant (50 μl/spot x 2 or 4 spots). • 3. At day 21 after the immunization, mice received an intradermal boost of 100 μl of an emulsion composed of 100 μg bovine type II collagen in Incomplete Freund's Adjuvant (50 μl/spot x 2 spots) • 4. After onset of disease symptoms (usually 3-4 days after boost), tetracycline derivatives were administered daily into mice via intraperitoneal or oral routes for 8 to 15 days. Methotrexate (12 mg/kg/day) or dexmethasone (4 mg/kg/day) was used as a control for inflammation suppression. • 5. The disease severity was scored daily for 8-15 days after the appearance of the symptoms. Disease severity was graded as following: • a. Visual clinical score for the presence of inflammation in the fingers/toes of the forepaws and hindpaws: • 1. Erythema and mild swelling confined to the mid-foot (tarsals) or ankle joint • 2. Erythema and mild swelling extending from the ankle to the mid-foot • 3. Erythema and moderate swelling extending from the ankle to the metatarsal joints • 4. Erythema and severe swelling encompassing the ankle, foot, and digits. • b. Clinical swelling score for the presence of paw edema in the forepaws and hindpaws: • Paw thickness was measured daily by an engineering micrometer after isofluorane inhalation or ketamine/xylazine (1.25 mg/ml:0.25 mg/ml, 100 μl/mouse) i.p. injection.
Daily scores and paw swelling measurements for each treatment group of mice were added over the total observation period to obtain a cumulative score. Cumulative scores were compared between untreated controls and treated groups to determine tetracycline-induced inhibition.

[9] = tested on: MMP-9; test: Paw extract biomarker ELISA, CIA mice: MMP-9; type: in vivo, mouse; details: paw extracts from CIA mice
Experimental: as §1, §2

[10] = tested on: IL-1; test: Paw extract biomarker ELISA, CIA mice: IL-1; type: in vivo, mouse; details: paw extracts from CIA mice
Experimental: as §1, §2

[11] = tested on: IL-6; test: Paw extract biomarker ELISA, CIA mice: IL-6; type: in vivo, mouse; details: paw extracts from CIA mice
Experimental: as §1, §2

[12] = tested on: MCP-1; test: Paw extract biomarker ELISA, CIA mice: MCP-1; type: in vivo, mouse; details: paw extracts from CIA mice
Experimental: as §1, §2

[13] = tested on: RANKL; test: Paw extract biomarker ELISA, CIA mice: RANKL; type: in vivo, mouse; details: paw extracts from CIA mice
Experimental: as §1, §2

[14] = 25 mg/kg/day i.p., dosed after disease onset
[15] = day 1 of dosing, 25 mg/kg/day i.p.
[16] = day 2 of dosing, 25 mg/kg/day i.p.
[17] = day 3 of dosing, 25 mg/kg/day i.p.
[18] = day 4 of dosing, 25 mg/kg/day i.p.
[19] = day 5 of dosing, 25 mg/kg/day i.p.
[20] = day 6 of dosing, 25 mg/kg/day i.p.
[21] = day 7 of dosing, 25 mg/kg/day i.p.
[22] = day 8 of dosing, 25 mg/kg/day i.p.

Compound	MIC [1]	bioavailability [3]	half-life [3]	% Inhibition (Change in Paw Thickness) AVG [4, 14]	% Inhibition (Clinical Score) AVG [4, 14]	EC50 in inflammation suppression in CIA mice [4]	Change in Paw Thickness (mm) Mean [4, 15]	Change in Paw Thickness (mm) Mean [4, 16]	Change in Paw Thickness (mm) Mean [4, 17]	Change in Paw Thickness (mm) Mean [4, 18]	Change in Paw Thickness (mm) Mean [4, 19]	Change in Paw Thickness (mm) Mean [4, 20]	Change in Paw Thickness (mm) Mean [4, 21]	Change in Paw Thickness (mm) Mean [4, 22]	MIC [6]	MIC [7]	inhibition in vivo at 25 mg/kg [8]	Percent level of Biomarker Tissue [c] Compared to Untreated Control, MMP-9 AVG [9]	Percent level of Biomarker Tissue [c] Compared to Untreated Control, IL-1 AVG [10]	Percent level of Biomarker Tissue [c] Compared to Untreated Control, IL-6 AVG [11]	also measured
CN(C)c1cc(-c2cccn2C)c(O)c2c1C[C@H]1C[C@H]3CC(O)=C(C(N)=O)C(=O)[C@@]3(O)C(O)=C1C2=O [Compound AT]	> 64 µg/mL	42%	6.4 h	81%	70%	12 mg/kg/day i.p.	0.94 mm	0.57 mm	0.55 mm	0.11 mm	0.05 mm	0.27 mm	−0.01 mm	−0.08 mm	1 µg/mL (≈ 2.03 µM)	> 64 µg/mL	81%	–	–	–	anti-bacterial activity compared to minocycline [1]: no anti-bacterial activity; IC50 [2]: > 100 µM; bio-available after oral dosing in rats ([3]; oral): bio-available; Effects on reduction of paw swelling and clinical score compared to either minocycline or methotrexate ([4]; murine CIA model): greater; joint inflammation when administered after disease onset ([4]; murine CIA model): inhibited joint inflammation; inhibition of inflammatory/osteoclastic cytokines (MMP-9, IL-1, IL-6, MCP-1, RANKL) in vivo [5]: better than minocycline; inhibition in vivo at 6 mg/kg ([8]; Dose 6 mg/kg): 45%; inhibition in vivo at 12 mg/kg ([8]; Dose 12 mg/kg): 49%
C[C@@H]1C[C@H]2[C@@H]3CCC4=CC(=O)C=C[C@]4(C)[C@@]3(F)[C@@H](O)C[C@]2(C)[C@@]1(O)C(=O)CO [Dexamethasone, dexamethasone, reference compound]	–	–	–	–	–	–	–	–	–	–	–	–	–	–	–	–	–	35%	16%	4%	% Inhibition (Change in Paw Thickness) AVG ([4]; 4 mg/kg): 82%; % Inhibition (Clinical Score) AVG ([4]; 4 mg/kg): 48%; Change in Paw Thickness (mm) Mean ([4]; day 1 of dosing, 4 mg/kg/day i.p.): 0.92 mm; Change in Paw Thickness (mm) Mean ([4]; day 2 of dosing, 4 mg/kg/day i.p.): 0.57 mm; Change in Paw Thickness (mm) Mean ([4]; day 3 of dosing, 4 mg/kg/day i.p.): 0.47 mm; Change in Paw Thickness (mm) Mean ([4]; day 4 of dosing, 4 mg/kg/day i.p.): −0.07 mm; Change in Paw Thickness (mm) Mean ([4]; day 5 of dosing, 4 mg/kg/day i.p.): 0.03 mm; Change in Paw Thickness (mm) Mean ([4]; day 6 of dosing, 4 mg/kg/day i.p.): −0.13 mm; Change in Paw Thickness (mm) Mean ([4]; day 7 of dosing, 4 mg/kg/day i.p.): 0.04 mm; Change in Paw Thickness (mm) Mean ([4]; day 8 of dosing, 4 mg/kg/day i.p.): −0.21 mm; Percent level of Biomarker Tissue [c] Compared to Untreated Control, MCP-1 AVG [12]: 5%; Percent level of Biomarker Tissue [c] Compared to Untreated Control, RANKL AVG [13]: 10%
CN(C)c1ccc(O)c2c1C[C@H]1C[C@H]3[C@H](N(C)C)C(O)=C(C(N)=O)C(=O)[C@@]3(O)C(O)=C1C2=O [Minocycline, minocycline, reference compound]	1 µg/mL (≈ 2.19 µM)	31%	3.6 h	22%	18%	>50 mg/kg/day i.p.	0.74 mm	0.72 mm	0.78 mm	0.86 mm	0.93 mm	1.07 mm	0.92 mm	1.18 mm	0.06 µg/mL (≈ 0.131 µM)	1 µg/mL (≈ 2.19 µM)	22%	104%	119%	114%	inhibition of the disease (CIA) ([4]; 50 mg/kg/day i.p.): 45%; Percent level of Biomarker Tissue [c] Compared to Untreated Control, MCP-1 AVG [12]: 102%; Percent level of Biomarker Tissue [c] Compared to Untreated Control, RANKL AVG [13]: 99%
